Counter-ions that a name gives are not always drawn.
Experiments:
[1] = system: LEF/TCF reporter activity; settings: Wnt3A-stimulated; according to WO 2011/035321 (A1); cited from earlier work
Frizzled1 = settings: according to WO 2011/035321 (A1); cited from earlier work
Dishevelled-2 protein = settings: according to WO 2011/035321 (A1); cited from earlier work
[2] = system: Wnt3A-stimulated R-catenin stabilization; settings: according to WO 2011/035321 (A1); cited from earlier work
HCT116 FOPFlash = assay: Control reporter assay, HCT116 FOP control vector (non-functional TCF elements), luciferase expression; type: cell-based; settings: HCT116 FOP control reporter cells, 36 hours incubation, dilution series 50 μM to 15 nM
Procedure, shortened: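 Stable HCT116 cells carrying FOP vector (randomized non-functional TCF sites) plus pcDNA3, run in parallel with TOP line; compounds 50 μM to 15 nM (3.16-fold steps) added in CAFTY buffer pH 7.4 with 2 mM Ca2+, 0.01% BSA. Incubated 36 h at 37 °C, 5% CO2; luciferase luminescence read.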

[3] = system: constitutive active colorectal cancer cell (CRC) Wnt pathway, HCT116 TOPFlash; assay: Cellular reporter assay, HCT116 Super TopFlash (constitutive active Wnt pathway), luciferase expression; type: cell-based; settings: HCT116 Super TopFlash reporter cells, 36 hours incubation, dilution series 50 μM to 15 nM
Procedure, shortened: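 HCT116 cells stably carrying Super TopFlash (β-catenin ΔS45, constitutive Wnt) run in parallel with FOP control line; compounds 50 μM to 15 nM (3.16-fold) in CAFTY buffer pH 7.4 with 2 mM Ca2+, 0.01% BSA, 36 h at 37 °C. Luciferase luminescence read as Wnt activity.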

Compound | IC50 (HCT116 FOPFlash; Homo sapiens, HCT-116, 36 h) [µM] | IC50 ([3]; Homo sapiens, HCT-116, 36 h) [µM] | other results
O=C(Nc1ccc([N+](=O)[O-])cc1Cl)c1cc(Cl)ccc1O [niclosamide] |  |  | LEF/TCF reporter activity [1]: inhibits; Frizzled1 internalization (endocytosis) (Frizzled1): promotes Frizzled1 internalization (endocytosis); Dishevelled-2 protein regulation (Dishevelled-2 protein): down regulates Dishevelled-2 protein; Wnt3A-stimulated R-catenin stabilization [2]: inhibits
CN1CCN(CC(=O)Nc2cc(C(=O)Nc3nnc(-c4cncnc4)s3)ccc2OC2CC2)CC1 [Example 112, 4-(cyclopropyloxy)-3-{[(4-methylpiperazin-1-yl)acetyl]amino}-N-[5-(pyrimidin-5-yl)-1,3,4-thiadiazol-2-yl]benzamide] | ≥ 50 | 0.33 | 
O=C(CN1CCOCC1)Nc1cc(C(=O)Nc2ccc(-c3cncnc3)cn2)ccc1OC(F)(F)F [Example 1, 3-[(morpholin-4-ylacetyl)amino]-N-[5-(pyrimidin-5-yl)pyridin-2-yl]-4-(trifluoromethoxy)benzamide] | ≥ 50 | 0.145 | 
COc1ccc(NC(=O)c2ccc(-c3cccs3)nc2)cc1NC(=O)CN1CCOCC1 [Example 24, N-{4-methoxy-3-[(morpholin-4-ylacetyl)amino]phenyl}-6-(thiophen-2-yl)pyridine-3-carboxamide] | ≥ 50 | 4 | 
O=C(CN1CCOCC1)Nc1cc(C(=O)Nc2nnc(-c3cscn3)s2)ccc1OC(F)(F)F [Example 67, 3-[(morpholin-4-ylacetyl)amino]-N-[5-(1,3-thiazol-4-yl)-1,3,4-thiadiazol-2-yl]-4-(trifluoromethoxy)benzamide] | ≥ 50 | 1.65 | 
O=C(CN1CCOCC1)Nc1cc(C(=O)Nc2cnc(-c3cccnc3)s2)ccc1OC1CC1 [Example 76, 4-(cyclopropyloxy)-3-[(morpholin-4-ylacetyl)amino]-N-[2-(pyridin-3-yl)-1,3-thiazol-5-yl]benzamide] | ≥ 50 | 0.155 | 
CC(C(=O)Nc1cc(C(=O)Nc2ccc(-c3cnc(N)nc3)nc2)ccc1OC(F)(F)F)N1CCOCC1 (centres unmarked) [Example 6] | ≥ 50 | 0.019 | 
Cc1ccncc1-c1nnc(NC(=O)c2ccc(OC(F)(F)F)c(NC(=O)CN3CCN(C)CC3)c2)s1 [Example 37, 3-{[(4-methylpiperazin-1-yl)acetyl]amino}-N-[5-(4-methylpyridin-3-yl)-1,3,4-thiadiazol-2-yl]-4-(trifluoromethoxy)benzamide] |  |  | IC50 (HCT116 FOPFlash): ≥ 50 µM; IC50 [3]: 0.61 µM
COc1ccc(C(=O)Nc2nnc(-c3cnccc3C)s2)cc1NC(=O)CN1CCOCC1 [Example 106, 4-methoxy-N-[5-(4-methylpyridin-3-yl)-1,3,4-thiadiazol-2-yl]-3-[(morpholin-4-ylacetyl)amino]benzamide] | ≥ 50 | ≥ 50 | 
Cc1ncc(-c2nnc(NC(=O)c3ccc(OC(F)(F)F)c(NC(=O)CN4CCOCC4)c3)s2)s1 [Example 100, N-[5-(2-methyl-1,3-thiazol-5-yl)-1,3,4-thiadiazol-2-yl]-3-[(morpholin-4-ylacetyl)amino]-4-(trifluoromethoxy)benzamide] | ≥ 50 | 41 | 
O=C(CN1CCOCC1)Nc1cc(C(=O)Nc2nnc(-c3cncc(C(F)(F)F)c3)s2)ccc1OC(F)(F)F [Example 58, 3-[(morpholin-4-ylacetyl)amino]-4-(trifluoromethoxy)-N-{5-[5-(trifluoromethyl)pyridin-3-yl]-1,3,4-thiadiazol-2-yl}benzamide] | 27.3 | 7.39 | 
CN1CCN(C2(C(=O)Nc3cc(C(=O)Nc4nnc(-c5cccnc5)s4)ccc3OC(F)(F)F)CC2)CC1 [Example 19, 3-({[1-(4-methylpiperazin-1-yl)cyclopropyl]carbonyl}amino)-N-[5-(pyridin-3-yl)-1,3,4-thiadiazol-2-yl]-4-(trifluoromethoxy)benzamide hydrochloride] | ≥ 50 | 0.105 | 
CC(C(=O)Nc1cc(C(=O)Nc2ccc(-c3cncnc3)nc2)ccc1OC(F)(F)F)N1CCOCC1 (centres unmarked) [Example 4, 3-{[2-(morpholin-4-yl)propanoyl]amino}-N-[6-(pyrimidin-5-yl)pyridin-3-yl]-4-(trifluoromethoxy)benzamide] | ≥ 50 | 0.0195 | 
COCCCOc1ccc(C(=O)Nc2nnc(-c3cnccc3C)s2)cc1NC(=O)CN1CCOCC1 [Example 74, 4-(3-methoxypropoxy)-N-[5-(4-methylpyridin-3-yl)-1,3,4-thiadiazol-2-yl)-3-[(morpholin-4-ylacetyl)amino]benzamide] | ≥ 50 | 3.7 | 
O=C(CN1CCOCC1)Nc1cc(C(=O)Nc2ccc(-c3cccnc3F)cn2)ccc1OC(F)(F)F [Example 16, N-(2′-fluoro-3,3′-bipyridin-6-yl)-3-[(morpholin-4-ylacetyl)amino]-4-(trifluoromethoxy)benzamide] | ≥ 50 | 0.103 | 
O=C(CN1CCOCC1)Nc1cc(C(=O)Nc2ccc(-c3cncnc3)cn2)ccc1OC1CC1 [Example 75, 4-(cyclopropyloxy)-3-[(morpholin-4-ylacetyl)amino]-N-[5-(pyrimidin-5-yl)pyridin-2-yl]benzamide] | ≥ 50 | 0.037 | 
Nc1cc(-c2nnc(NC(=O)c3ccc(OC(F)(F)F)c(NC(=O)CN4CCOCC4)c3)s2)ccn1 [Example 98, N-[5-(2-aminopyridin-4-yl)-1,3,4-thiadiazol-2-yl]-3-[(morpholin-4-ylacetyl)amino)-4-(trifluoromethoxy)benzamide] | ≥ 50 | ≥ 50 | 

Further lines, with some results ahead:

IC50 (HCT116 FOPFlash; Homo sapiens, HCT-116, 36 h) [µM] | IC50 ([3]; Homo sapiens, HCT-116, 36 h) [µM] | Compound | other results
≥ 50 | 1.47 | CN1CCN(CC(=O)Nc2cc(C(=O)Nc3nnc(-c4cnc(N)s4)s3)ccc2OC(F)(F)F)CC1 [Example 66, N-[5-(2-amino-1,3-thiazol-5-yl)-1,3,4-thiadiazol-2-yl]-3-{[(4-methylpiperazin-1-yl)acetyl]amino}-4-(trifluoromethoxy)benzamide] | 
46 | 1.11 | CN1CCN(CC(=O)Nc2cc(C(=O)Nc3nnc(-c4cscn4)s3)ccc2OC(F)(F)F)CC1 [Example 64, 3-{[(4-methylpiperazin-1-yl)acetyl]amino}-N-[5-(1,3-thiazol-4-yl)-1,3,4-thiadiazol-2-yl]-4-(trifluoromethoxy)benzamide] | 
≥ 50 | 1.14 | Cc1ncccc1-c1nnc(NC(=O)c2ccc(OC(F)(F)F)c(NC(=O)CN3CCOCC3)c2)s1 [Example 28, N-[5-(2-methylpyridin-3-yl)-1,3,4-thiadiazol-2-yl]-3-[(morpholin-4-ylacetyl)amino]-4-(trifluoromethoxy)benzamide] | 
≥ 50 | 0.268 | CN1CCN(CC(=O)Nc2cc(C(=O)Nc3nnc(-c4ccc(N)nc4)s3)ccc2OC(F)(F)F)CC1 [Example 38, N-[5-(6-aminopyridin-3-yl)-1,3,4-thiadiazol-2-yl]-3-{[(4-methylpiperazin-1-yl)acetyl]amino}-4-(trifluoromethoxy)benzamide] | 
≥ 50 | 0.079 | CN1CCN(CC(=O)Nc2cc(C(=O)Nc3cnc(-c4cccnc4F)cn3)ccc2OC(F)(F)F)CC1 [Example 51] | 
≥ 50 | 32 | CN1CCN(CC(=O)Nc2cc(C(=O)Nc3nnc(-c4cnccc4F)s3)ccc2OC(F)(F)F)CC1 [Example 109, N-[5-(4-fluoropyridin-3-yl)-1,3,4-thiadiazol-2-yl]-3-{[(4-methylpiperazin-1-yl)acetyl]amino}-4-(trifluoromethoxy}benzamide] | 
40 | 0.167 | CN1CCN(CC(=O)Nc2cc(C(=O)Nc3nnc(-c4cccnc4)s3)ccc2OC(F)(F)F)CC1 [Example 20, 3-{[(4-methylpiperazin-1-yl)acetyl]amino}-N-[5-(pyridin-3-yl)-1,3,4-thiadiazol-2-yl]-4-(trifluoromethoxy)benzamide hydrochloride] | 
